Drawing on PubChem BioAssay (NCI), this text covers GI50 and TGI for eight compounds.

Common to all, as to test: NCI-60 cell line screen, 48 h
Test [1] concerns SNB-19 CNS.
For test [2], the system named is CCRF-CEM leukemia.
Test [3] has as its system KM12 colon.
Test [4] deals with MALME-3M melanoma.
Test [5] relates to NCI-H522 lung.
For test [6], the system named is OVCAR-5 ovarian.
For test [7], the system named is SF-539 CNS.
In test [8] the test system is HOP-62 NSCLC.
For test [9], the system named is SK-MEL-5 melanoma.
Test [10] has as its system TK-10 renal.

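A five-concentration, 48-hour dose response in 96-well plates underlies each endpoint, interpolated linearly between surrounding concentrations. At the GI50, growth is halved. Definition used: TGI = concentration required for complete inhibition of growth.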

With `CS(=O)(=O)Nc1ccc(-c2ccc3c(NC(=O)C4CC4)n[nH]c3c2)cc1`, the GI50 in test [1] is more than 25 µM; in test [2], 24.2 µM; in test [3] it was more than 16.2 µM; in [4], more than 23.1 µM; in [5], more than 25 µM; in [6], more than 25 µM. Besides, the GI50 in test [7] was more than 20 µM; in test [8], more than 25 µM; in [9], more than 11.9 µM; in [10], more than 25 µM. Also, the TGI in test [1], in test [2], in test [3], in test [4], in [5] and in test [6] was more than 25 µM in each case. Besides, the TGI in test [7], in test [8], in [9] and in [10] was more than 25 µM throughout.
As to `C=C1C(=O)O[C@H]2[C@H]1CC/C(COC(=O)c1cc3cc(OC)ccc3[nH]1)=C\CC[C@@]1(C)O[C@@H]21`, the GI50 in test [1] is 1.57 µM; in test [2], 0.348 µM; in test [3], 1.54 µM; in test [4], 1.61 µM; in test [5], 0.701 µM; in test [6], 1.77 µM. For the same compound, the GI50 was 1.02 µM in test [7], 1.64 µM in [8], 1.74 µM in test [9] and 1.28 µM in test [10]. In addition, the TGI in test [1] is 3.2 µM; in test [2] it was 1.57 µM; in test [3], 3.33 µM; in test [4] it was 3.14 µM; in [5], 2.28 µM; in test [6] it was 3.76 µM. Moreover, the TGI in test [7] turned out to be 2.25 µM; in test [8], 3.29 µM; in test [9], 3.17 µM; in [10], 2.54 µM.
`COc1ccc(NC2=C(Br)C(=O)C(C)=C(C)C2=O)cc1`: the GI50 in test [1] was 10.5 µM; in [2], 2.33 µM; in [3], 5.02 µM; in test [4] it was 14.5 µM; in [5] it was 12.7 µM; in [6], 5.07 µM. Further, the GI50 was 13.5 µM in test [7], 15 µM in [8], 13.1 µM in test [9] and 25.2 µM in test [10]. Besides, the TGI is 22.8 µM in test [1]; more than 100 µM in test [2]; 19 µM in [3]; 28.3 µM in test [4]; 31.8 µM in [5]; 21.8 µM in [6]. For the same compound, the TGI in [7] worked out at 26.7 µM; in [8], 38.6 µM; in test [9], 26 µM; in test [10], 40.9 µM.
On to `Oc1ccc(Cc2ccccc2)c2cccnc12`, for which the GI50 is 3.08 µM in test [1]; 0.423 µM in test [2]; 2.07 µM in [3]; 2.96 µM in test [4]; 3.69 µM in test [5]; 4.73 µM in test [6]. For the same compound, the GI50 in test [7] was 1.66 µM; in test [8], 2.03 µM; in [9], 1.52 µM; in test [10], 2.81 µM. Moreover, the TGI in [1] was more than 100 µM; in [2], 5.44 µM; in test [3], 27 µM; in test [4] it was 31.6 µM; in [5] it was 76 µM; in test [6], more than 100 µM. The TGI in test [7] was 19.2 µM; in test [8], 80.6 µM; in test [9] it was 10.8 µM; in test [10], more than 100 µM.
Consider `CC(=O)[CH-]C(C)=O.CC(=O)[CH-]C(C)=O.N=CC=N.[Sn+2]`, for which the GI50 is 14.6 µM in test [1]; 1.51 µM in test [2]; 2.94 µM in [3]; 2.02 µM in test [4]; 0.911 µM in test [5]; 7.29 µM in test [6]. Moreover, the GI50 in test [7] was 3.23 µM; in test [8], 19.3 µM; in test [9], 5.46 µM; in test [10], 4.48 µM. Further, the TGI in [1] worked out at 27.8 µM; in [2], 13.3 µM; in test [3], 8.49 µM; in [4], 4.24 µM; in test [5], 2.13 µM; in [6] it was 19.2 µM. Also, the TGI in test [7] was 11.8 µM; in test [8], 33.9 µM; in test [9], 16.9 µM; in test [10], 10.7 µM.
With `COc1ccccc1C(=O)c1ccc2ccccc2c1`, the TGI is 78.4 µM in [1]; more than 100 µM in test [2]; 33.2 µM in test [3]; 42.6 µM in [4]; 21.5 µM in test [5]; more than 100 µM in test [6]. Besides, the TGI in [7] is 25.8 µM; in [8] it was more than 100 µM; in test [9], 19.8 µM; in test [10], 63.6 µM.
In the case of `CC1=C(C)C(=O)O[C@@H]([C@](C)(O)[C@]2(O)CC[C@@]3(O)[C@@H]4C[C@H]5O[C@]56CC=CC(=O)[C@]6(C)[C@H]4CC[C@]23C)C1`, the GI50 in [1] was 0.395 µM; in test [2], 0.163 µM; in test [3] it was 0.266 µM; in test [4] it was 0.382 µM; in test [5] it was 0.1 µM; in test [6] it was 0.299 µM. In addition, the GI50 was 0.272 µM in [7], 0.292 µM in [8], 0.269 µM in [9] and 0.0482 µM in test [10]. The TGI in test [1] was determined as 13.7 µM; in [3], 1.57 µM; in [4], 3.4 µM; in test [5], 0.534 µM; in test [6] it was 2.51 µM; in test [7] it was 1.62 µM. Further, the TGI in [8] was 3.39 µM; in [9] it was 1.43 µM; in test [10], 0.995 µM.
On to `COc1cc(-c2cn(C)c(=O)c(C)c2C)cc(OC)c1CN1CC[C@H](N2CCN(c3ccc(N[C@H]4CCC(=O)NC4=O)cc3F)CC2)C(F)(F)C1`, for which the GI50 was 14.8 µM in [1]; 19.4 µM in test [2]; 15.1 µM in [3]; 15 µM in [4]; 8.09 µM in test [5]; 15.8 µM in test [6]. For the same compound, the GI50 in test [7] was 14.4 µM; in [8], 14 µM; in test [9], 4.64 µM; in test [10] it was 12 µM. The TGI in [1] is 31.6 µM; in test [2], more than 100 µM; in test [3] it was 30.2 µM; in test [4], 30.1 µM; in test [5], 24.1 µM; in test [6], 31.5 µM. Also, the TGI worked out at 28.6 µM in test [7], 39.2 µM in [8], 18.8 µM in [9] and 28.8 µM in [10].
